Test results: patent US20220362386A1, “LIQUID COMPOSITIONS COMPRISING A LEVODOPA AMINO ACID CONJUGATE AND USES THEREOF” (NeuroDerm, Ltd., priority 2019, published 2022)
Where a name gives a salt, the structure may show the parent alone. Read-outs that look alike come from different tables or passages of the source. Non-standard residues stand in square brackets, D forms with d. Residues, ends and D or L forms follow the SMILES beside them. Dopa = N[C@@H](Cc1ccc(O)c(O)c1)C(=O)O

Columns and labels:
[1] = Comparative formulation tests, physical stability (Tables 32a-c, 33a-c); format: physicochemical; settings: LDAA TFA salt/CD formulation; for Physical stability (visual), Day 1: Day 1, room temperature; for Physical stability (visual), Day 2: Day 2, room temperature; for Physical stability (visual), Day 5: Day 5, room temperature after two days at 2-8° C.; for Physical stability (visual), Day 6: Day 6, room temperature after two days at 2-8° C.; for Physical stability (visual), Day 40: Day 40, returned to 2-8° C.
Procedure: It is noted that the formulations were similarly to those above; however, CD was added, and further, the amounts of the antioxidants, i.e., ascorbic acid and NAC, were added at three different concentrations, as detailed in Tables 32a-c below. Further, an additional amount of arginine was added to the solution in order to adjust the pH to a physiologically acceptable pH.
The formulations prepared as detailed in Tables 32a, 32b and 32c were (a) held at room temperature for two days; (b) transferred to a refrigerator (2-8° C.) for two days; and (c) transferred from the refrigerator to room temperature for an additional two days, during which they were assessed again for precipitants. The formulations were then returned to the refrigerator (2-8° C.) and assessed for precipitants on day 40. The physical stability of each formulation was assessed on the first two days and again on the last two days. The physical stability of the formulations was assessed visually. A clear solution was considered to be stable, while a solution comprising precipitants was considered to be physically unstable. The stability results of the formulations of Tables 32a, 32b and 32c are detailed in Tables 33a, 33b and 33c, respectively.

human plasma [2] = experiment: Protein binding, solid phase extraction (SPE) method; format: in vitro ADME; settings: 1.0E−05M; SPE sample preparation
Procedure: (§1) A solid phase extraction (SPE) method was used to prepare samples for several compounds in the plasma protein binding assay. The following SPE protocols were followed:
(§2) Sorbent: Waters Oasis MCX 96—well MicroElution Plate—Cat #186001830BA Sample: 200 μL of plasma spiked at 10 μM with test compound. Sample was diluted 1:1 with 4% phosphoric acid in water and mixed for 15 minutes 1) Place Oasis plate on vacuum manifold and set vacuum to 5″ Hg; 2) Condition with 200 μL methanol; 3) Equilibrate with 200 μL water; 4) Load dilute plasma sample; 5) Wash with 200 μL 2% formic acid in water; 6) Wash with 400 μL methanol; and 7) Elute with 100 μL 5% NH4OH in methanol.
(§3) Sorbent: Waters Oasis MAX 96-well MicroElution plate—Cat #186001829 Sample: 200 μL of plasma spiked at 10 μM with test compound. Sample was diluted 1:1 with 4% phosphoric acid in water and mixed for 15 minutes 1) Place Oasis plate on vacuum manifold and set vacuum to 5″ Hg; 2) Condition with 200 μL methanol; 3) Equilibrate with 200 μL water; 4) Load dilute plasma sample; 5) Wash with 200 μL 5% NH4OH in water; 6) Wash with 400 μL methanol; and 7) Elute with 100 μL 2% formic acid in methanol.

[3] = as above; format: in vitro ADME, human; settings: human, human plasma, 1.0E−05M, SPE sample preparation
Procedure: as §1, §2, §3

human plasma [4] = experiment: Protein binding, equilibrium dialysis method; format: in vitro ADME; settings: 1.0E-05M; 37° C., 4 h
Procedure: (§4) The protein binding values of various LDAA compounds in their TFA salt form (10^−5M) were tested in human plasma. The equilibrium dialysis technique was used to separate the fraction of the test compound that was unbound from the fraction of the test compound that bound to proteins during the test. The test was performed on 96-well plates in a dialysis block constructed from Teflon™.
(§5) The protein containing matrix used was human plasma, wherein the assay matrix was human serum albumin and alpha-1 acid glycoprotein. The protein matrix was spiked with each test compound at 10 μM (by default, n=2) with a final DMSO concentration of 1%. The dialysate compartment is loaded with phosphate buffered saline (PBS, pH 7.4), and the sample compartment was loaded with an equal volume of the spiked protein matrix. The dialysis plate was then sealed and incubated at 37° C. for 4 h.
(§6) Following the incubation, samples were taken from each compartment, diluted with PBS followed by the addition of acetonitrile, after which the samples were centrifuged. The supernatants were collected and analyzed by HPLC-MS/MS. The HPLC tests included a binary LC pump with an autosampler, a C18 column (2×20 mm), and gradient elution. The HPLC conditions were adjusted when necessary.
(§7) A control sample (n=2) was prepared from the spiked protein matrix in the same manner; however, no dialysis was performed on the control. It is noted that the control sample served as the bases for the recovery determination.
(§8) Acebutolol, quinidine, and warfarin were used in each assay as reference compounds, wherein it is known that those reference compounds provide low, medium and high human plasma protein binding values, respectively.
(§9) The % of the tested compound that is bound to proteins and the recovery values were calculated as follows:
(§10) Protein binding (%)=100×(Areap−Areab)/Areap
(§11) Recovery (%)=100×(Areap−Areab)/Areac
(§12) The determination of the recovery % serves as an indicator of reliability of the calculated protein binding value. […] This is most likely due to non-specific binding or degradation of the test compound. It is noted that a recovery of above 60% is considered to be reliable, while under 60% recovery, the results of the test are considered to be unreliable.

[5] = Protein binding, equilibrium dialysis method; format: in vitro ADME, human; settings: human, human plasma, pH 7.4, 1.0E-05M
Procedure: as §4, §5, §6, §7, §8, §9, §10, §11, §12

[6] = Human liver S9 stability test; format: in vitro ADME; settings: substrate 10 μM, S9 protein 0.2 mg/mL; for Ke: slope of the percentage decrease of remaining compound, 0-60 minutes
Procedure: The stability of several LDAA compounds, in their TFA salt form, in human liver S9 was tested using commercially available liver S9. The substrate concentration was 10 μM, the S9 protein concentration was 0.2 mg/mL, and the incubation time 0, 5, 15, 30 and 60 minutes.
The results are described in Table 18, wherein the results describe the Ke, i.e., the slope of the percentage decrease of the remaining amount of the compound, measured at each of the above time points, such that the higher the Ke the faster the metabolism.

[7] = NB 144-15, ~0.1% Asc + ~0.1% NAC
[8] = NB 144-18, ~0.4% Asc + ~0.4% NAC
[9] = NB 144-20, ~0.8% Asc + ~0.8% NAC

| SMILES | Physical stability (visual), Day 1 [1, 7] | Physical stability (visual), Day 2 [1, 7] | Physical stability (visual), Day 5 [1, 7] | Physical stability (visual), Day 6 [1, 7] | Physical stability (visual), Day 40 [1, 7] | Physical stability (visual), Day 1 [1, 8] | Physical stability (visual), Day 2 [1, 8] | Physical stability (visual), Day 5 [1, 8] | Physical stability (visual), Day 6 [1, 8] | Physical stability (visual), Day 40 [1, 8] | Physical stability (visual), Day 1 [1, 9] | Physical stability (visual), Day 2 [1, 9] | Physical stability (visual), Day 5 [1, 9] | Physical stability (visual), Day 6 [1, 9] | Physical stability (visual), Day 40 [1, 9] | % Protein Bound 1st (human plasma [2]) | % Protein Bound 2nd (human plasma [2]) | % Protein Bound Mean (human plasma [2]) | recovery at 10 μM ([3]; read-out: % Recovery 1st) | recovery at 10 μM ([3]; read-out: % Recovery 2nd) | further results |
| --- | --- | --- | --- | --- | --- | --- | --- | --- | --- | --- | --- | --- | --- | --- | --- | --- | --- | --- | --- | --- | --- |
| NCCCC[C@H](NC(=O)[C@@H](N)Cc1ccc(O)c(O)c1)C(=O)O [LD-Lys TFA salt, Levodopa Lysine TFA Salt] (H-[Dopa]-Lys-OH) | Precipitated | Precipitated | Precipitated | Precipitated | Precipitated | Stable | Stable | Precipitated | Precipitated | Precipitated | Stable | Stable | Precipitated | Precipitated | Precipitated | 0.3% | 18.7% | 10% | 79% | 63% | recovery at 10 μM ([3]; read-out: % Recovery Mean): 71%; % Protein Bound 1st (human plasma [4]): 59.5%; % Protein Bound 2nd (human plasma [4]): 53.1%; % Protein Bound Mean (human plasma [4]): 56%; recovery at 4 h, 10 μM ([5]; read-out: % Recovery 1st): 12%; recovery at 4 h, 10 μM ([5]; read-out: % Recovery 2nd): 19%; recovery at 4 h, 10 μM ([5]; read-out: % Recovery Mean): 16%; Ke [6]: 0.0788; metabolism in human liver S9 (in words) [6]: rapidly metabolized |
| N[C@@H](Cc1ccc(O)c(O)c1)C(=O)N[C@@H](Cc1ccc(O)cc1)C(=O)O [LD-Tyr TFA salt, Levodopa Tyrosine TFA Salt] (H-[Dopa]-Tyr-OH) | Stable | Stable | Precipitated | Precipitated | Precipitated | Stable | Stable | Stable | Stable | Stable | Stable | Stable | Stable | Stable | Stable | 11% | 32.5% | 22% | 64% | 72% | recovery at 10 μM ([3]; read-out: % Recovery Mean): 68%; Ke [6]: 0.0217; metabolism in human liver S9 (in words) [6]: rapidly metabolized |
